Experimental data published in US8030304B2, “Thiazole pyrazolopyrimidines CRF1 receptor antagonists” (Eli Lilly and Company, priority 2006, dated 2011).
Positions count from the first letter of the chain named.

Assays:
[1] = Bioavailability and pharmacokinetic properties (volume of distribution, plasma clearance)
Source text: (§1) Bioavailability and Pharmacokinetic Properties
(§2) The volume of distribution (Vdist) relates the amount of the drug in the body to the concentration of the drug in the blood or plasma. […] The volume of distribution reflects the extent to which the drug is present in the extravascular tissue. A large volume of distribution reflects the tendency of a compound to bind to the tissue components compared with plasma protein binding.
(§3) To test for volume of distribution, Male Sprague Dawley rats (N=3) are administered a single 1 mg/kg intravenous dose of compound. Multiple plasma samples are collected at time points from 0.08 to 24 hours post-dose. The plasma samples are analyzed by LC/MS/MS to determine the plasma concentrations. Plasma pharmacokinetic calculations are performed to determine the pharmacokinetic parameters including Vdist and plasma clearance (Clp).
(§4) Further, the plasma clearance (CLp) is a measure of the rate of removal of the drug from the body. Following an intravenous dose and first-order kinetics, the plasma clearance may be determined using the following equation: CLp=Dose/AUC, where
(§5) AUC is the total area under the curve that describes the concentration of the drug in the plasma as a function of time from zero to infinity.

human CRF2 = target: T1, human CRF2 (Homo sapiens, UniProt Q13324); assay: CRF2 filter binding assay; conditions: at a concentration of 50 μM
T1 construct: expressed in transfected cells
T1 sequence (Q13324 1-411): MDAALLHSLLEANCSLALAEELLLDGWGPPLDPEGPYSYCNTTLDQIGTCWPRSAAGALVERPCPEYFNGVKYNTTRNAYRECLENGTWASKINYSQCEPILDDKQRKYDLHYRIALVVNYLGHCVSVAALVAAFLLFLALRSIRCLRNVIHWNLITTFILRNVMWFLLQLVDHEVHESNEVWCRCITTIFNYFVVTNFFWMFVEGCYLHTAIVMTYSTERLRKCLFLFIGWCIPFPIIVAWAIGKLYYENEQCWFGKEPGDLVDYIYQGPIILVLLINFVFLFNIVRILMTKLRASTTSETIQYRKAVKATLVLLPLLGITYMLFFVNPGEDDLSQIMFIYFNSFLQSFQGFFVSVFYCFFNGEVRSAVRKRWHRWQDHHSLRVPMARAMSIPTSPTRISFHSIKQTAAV
Experimental: CRF2 Filter Binding Assay
The limitations of plasmid-based human CRF2 expression, in terms of generating a recombinant cell line with sufficient receptor density to develop a binding assay, are overcome by using a Phoenix retroviral expression system licensed from Stanford. The stable HEK-hCRF2 cell line is used to prepare membranes and binding reactions (200 μL) are set up as follows: 50 μL of ^125I-sauvagine (0.2 nM final concentration), 50 μL compound and 100 μL CRF2 membrane (25 μg/reaction). The reactions are incubated at room temperature for 2 hours and then terminated by filtration through pre-treated FB Millipore glass fiber filter plates (96 well). The plates are washed twice with ice-cold assay buffer (50 mM tris, 12.5 mM NaCl, 1 mM EDTA, 10 mM MgCl2, 0.05% BSA, pH 7.2), air dried over night and counted with 100 μL Microscint 40 in a MicroBeta counter. Non-specific binding (NSB) is determined in the presence of 0.5 μM non-labeled sauvagine. Alternatively, compounds are evaluated using a Scintillation Proximity assay. […] Bound radioactivity is assessed using a Wallac Trilux scintillation counter. Binding is assessed typically using triplicate determinations and the median data points plotted by Graph Pad Prism. […]

[2] = target: T2, binding of 125I-sauvagine to the cerebellum (Rattus norvegicus, UniProt P35353); assay: In vivo potency assessment using ex vivo binding; conditions: oral route
T2 construct: from tissue; host or cells: rat cerebellum
T2 sequence (P35353 24-415): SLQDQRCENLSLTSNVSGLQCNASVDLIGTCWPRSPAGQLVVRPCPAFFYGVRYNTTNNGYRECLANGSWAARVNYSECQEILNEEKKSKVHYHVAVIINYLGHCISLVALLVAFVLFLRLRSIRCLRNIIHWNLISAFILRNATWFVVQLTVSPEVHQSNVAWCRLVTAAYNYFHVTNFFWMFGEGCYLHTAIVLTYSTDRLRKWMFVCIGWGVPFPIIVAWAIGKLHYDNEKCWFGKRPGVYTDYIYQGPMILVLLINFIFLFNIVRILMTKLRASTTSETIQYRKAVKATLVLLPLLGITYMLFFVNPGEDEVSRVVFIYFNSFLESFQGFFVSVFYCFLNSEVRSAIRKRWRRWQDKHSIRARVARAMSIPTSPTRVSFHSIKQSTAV
Experimental: In Vivo Potency Assessment Using Ex Vivo Binding
To assess in vivo potency, a compound of the present invention is evaluated using ex vivo binding. Using the procedures as provided in D. R. Gehlert et al., EJP 509: 145-153 (2005), a compound is administered to a rat via the oral route.

human CRF1 = target: T3, human CRF1 (Homo sapiens, UniProt P34998); assay: CRF1 filter binding assay; conditions: HEK-hCRF1 membranes, 125I-sauvagine; read-out: Ki (inhibition constant)
T3 construct: expressed in transfected cells
T3 sequence (P34998 24-415): T2 sequence (P35353 24-415) with R6H, N9S, T13A, V16I, V153M, A163G, V209I, H229Y, R356H
Experimental: CRF1 Filter Binding Assay
The limitations of plasmid-based human CRF1 expression, in terms of generating a recombinant cell line with sufficient receptor density to develop a binding assay, are overcome by using a Phoenix retroviral expression system licensed from Stanford. The stable HEK-hCRF1 cell line is used to prepare membranes and binding reactions (200 μL) are set up as follows: 50 μL of ^125I-sauvagine (0.2 nM final), 50 μL compound and 100 μL CRF1 membrane (25 μg/reaction). The reactions are incubated at room temperature for 2 h and then terminated by filtration through pre-treated FB Millipore glass fiber filter plates (96 well). The plates are washed twice with ice-cold assay buffer (50 mM tris, 12.5 mM NaCl, 1 mM EDTA, 10 mM MgCl2, 0.05% BSA, pH 7.2), air dried over night and counted with 100 μL Microscint 40 in a MicroBeta counter. Non-specific binding (NSB) is determined in the presence of 0.5 μM non-labeled sauvagine. Triplicate determinations are typically run and the median data points plotted by Graph Pad Prism.

in vivo = conditions: male, Sprague Dawley, rat, iv
Source text: as §1, §2, §3, §4, §5

[3] = male, Sprague Dawley, rat, plasma, iv, 1 mg/kg

For `CCCCN(CC)c1nc(C)nc2c1c(C)cn2-c1c(C)cc(C)cc1C` [CP154526], the Vd [1, 3] was 114 L/kg and the clearance [1, 3] was 83 mL/min/kg.
For `CCCN(CCC)c1cc(C)nc2c(-c3cnc(N(C)C)cc3C)c(C)nn12` [NBI30775], the “rat Vdist (volume of distribution)” value ([1]; single intravenous dose of 1 mg/kg, analyzed separately) was 76 L/kg.
In the case of `CCC(CC)c1cc(C)nc2c(-c3sc(N(C)C)nc3Cl)c(C)nn12` [Example 15, {4-Chloro-5-[7-(1-ethyl-propyl)-2,5-dimethyl-pyrazolo[1,5-a]pyrimidin-3-yl]-thiazol-2-yl}-dimethyl-amine], the inhibition at 50 µM (human CRF2) is reported as 11%, the inhibition at 10 mg/kg [2] is reported as 65% and the Ki (human CRF1) is reported as 6.2 nM. For the same compound, the clearance (in vivo) was 23.6 mL/min/kg and the Vd (in vivo; 1 mg/kg) was 7.2 L/kg.
